Measured values as given in PubChem BioAssay (NCI).
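Protocol summary: plate cells (96-well), add compound at 5 concentrations, incubate 48 h, interpolate endpoints linearly. TGI is the concentration that stops growth completely.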

Assays:
Test in all cases: DTP human tumour cell line panel, 48 h
IGROV1 ovarian = test system: IGROV1 ovarian
CCRF-CEM leukemia = test system: CCRF-CEM leukemia
HL-60(TB) leukemia = test system: HL-60(TB) leukemia
UO-31 renal = test system: UO-31 renal
LOX IMVI melanoma = test system: LOX IMVI melanoma
NCI-H460 lung = test system: NCI-H460 lung
MOLT-4 leukemia = test system: MOLT-4 leukemia
OVCAR-5 ovarian = test system: OVCAR-5 ovarian
NCI-H23 lung = test system: NCI-H23 lung
MDA-MB-435 = test system: MDA-MB-435
SR leukemia = test system: SR leukemia
RPMI-8226 leukemia = test system: RPMI-8226 leukemia
PC-3 prostate = test system: PC-3 prostate
HCT-116 colon = test system: HCT-116 colon
MCF7 breast = test system: MCF7 breast
HT29 colon = test system: HT29 colon
MDA-MB-231 breast = test system: MDA-MB-231 breast

Structure (SMILES)	TGI (IGROV1 ovarian)	TGI (CCRF-CEM leukemia)	TGI (HL-60(TB) leukemia)	TGI (UO-31 renal)	TGI (LOX IMVI melanoma)	TGI (NCI-H460 lung)	TGI (MOLT-4 leukemia)	TGI (OVCAR-5 ovarian)	TGI (NCI-H23 lung)	TGI (MDA-MB-435)	TGI (SR leukemia)	TGI (RPMI-8226 leukemia)	TGI (PC-3 prostate)	TGI (HCT-116 colon)	TGI (MCF7 breast)	TGI (HT29 colon)	TGI (MDA-MB-231 breast)
Oc1ccc(-c2nc(-c3ccc(F)cc3)c(-c3ccc4ccccc4n3)[nH]2)cc1	26.5 µM	> 100 µM	> 100 µM	26.1 µM	27.9 µM	18.4 µM	25.2 µM	39.8 µM	25.4 µM	29.6 µM	> 100 µM	> 100 µM	22.6 µM	32.4 µM	18.7 µM	20.2 µM	41.4 µM
O=C(NS(=O)(=O)OCC(Cl)(Cl)Cl)SCCC(F)(F)C(F)(F)C(F)(F)C(F)(F)C(F)(F)C(F)(F)F	> 100 µM	44.5 µM	51.2 µM	> 100 µM	45.6 µM	41.5 µM	80 µM	34.6 µM	40.6 µM	55 µM	> 100 µM	40.5 µM	32.4 µM	40.8 µM	40.6 µM	35.6 µM	61.9 µM
C[C@@H]1CCC2[C@@H](C)[C@@H](OCCO[C@H]3OC4O[C@@]5(C)CCC6[C@H](C)CCC([C@H]3C)[C@@]46OO5)OC3O[C@@]4(C)CCC1[C@]32OO4 (stereo not given in full)	> 100 µM	> 100 µM	> 100 µM	> 100 µM	> 40.5 µM	> 100 µM	> 100 µM	> 100 µM	68.9 µM	98.9 µM	> 100 µM	> 100 µM	> 95.8 µM	> 100 µM	> 42.3 µM	> 100 µM	> 66.2 µM
CSc1ncnc2c1cnn2CCCCO	> 100 µM	> 100 µM	> 100 µM	> 100 µM	> 100 µM	> 100 µM	> 100 µM	> 100 µM	> 100 µM	> 100 µM	> 100 µM	> 100 µM	> 100 µM	> 100 µM	> 100 µM	> 100 µM	> 100 µM
CC(C)(C)c1cc(C(=O)/C=C/C=C/c2ccccc2)cc(C(C)(C)C)c1O	> 100 µM	15.5 µM	8.88 µM	> 77.3 µM	50.9 µM	31.5 µM	> 63.1 µM	> 87 µM	> 100 µM	> 70.4 µM	13.4 µM	29.9 µM	> 79.9 µM	44.9 µM	> 86.6 µM	> 89.9 µM	49 µM
